Measured values reported in patent US4990537A, “Anti influenza agent” (priority 1988, dated 1991).

Assays:
in vitro = conditions: dog, mdck
[1] = tested on: MDCK cells (dog kidney cells); conditions: for range of safety compared with amantadine: in words, versus amantadine; for Cytotoxicity (printed in the inhibition rate column): 100.0 μg/ml, plaque assay, three days
[2] = tested on: human influenza virus (A/Fukuoka/80); assay: animal or person; format: in vivo, human influenza virus; embryonated chicken eggs; conditions: for activities for inhibiting proliferation of human influenza virus compared with amantadine: in words, versus amantadine; for IC50: unidentified influenza virus, 48 h, read-out: Concentration for 50% inhibition against proliferation of virus
[3] = tested on: human influenza virus A/WSN; assay: Inhibitory activities against plaque formation of human influenza virus (plaque assay in MDCK cells); format: cell-based; conditions: for inhibitory activities against growth of human influenza virus compared with amantadine: in words, versus amantadine
[4] = unidentified influenza virus, WSN, MDCK, 72 h, read-out: Inhibition rate (%) of plaque formation

SMILES | MNTC at 72 h (in vitro) | range of safety compared with amantadine [1] | activities for inhibiting proliferation of human influenza virus compared with amantadine [2] | IC50 [2] | inhibitory activities against growth of human influenza virus compared with amantadine [3] | inhibition at 10 µg/mL [3, 4] | inhibition at 20 µg/mL [3, 4] | inhibition at 40 µg/mL [3, 4] | inhibition at 50 µg/mL [3, 4] | inhibition at 100 µg/mL [3, 4] | cytotoxicity [1] | Cytotoxicity (printed in the inhibition rate column) [1] | inhibition at 30 µg/mL [3, 4] | inhibition at 1 µg/mL [3, 4] | inhibition at 2.5 µg/mL [3, 4] | inhibition at 5 µg/mL [3, 4] | inhibition at 25 µg/mL [3, 4]
CN(C)C(=O)COC(=O)Cc1ccc(OC(=O)c2ccc(NC(=N)N)cc2)cc1.CS(=O)(=O)O [Compound B, N,N-dimethylcarbamoylmethyl p-(p-guanidinobenzoyloxy)phenylacetate methanesulfonate] | ≥ 1000 µg/mL | wide range of safety as compared with amantadine | stronger activities for inhibiting proliferation of human influenza virus | 1.25 µg/mL | even stronger inhibitory activities against growth of human influenza virus than amantadine | 29.5% | 51.5% | 80.5% | 88% | 100% | – | – | – | – | – | – | –
NC12CC3CC(CC(C3)C1)C2 [Amantadine, amantadine, reference compound] | – | – | – | > 100 µg/mL | – | – | – | – | – | – | cytotoxicity slightly but distinctly | Cytotoxicity | 60.1% | – | – | – | –
CS(=O)(=O)O.CS(=O)(=O)O.N=C(N)Nc1ccc(C(=O)Oc2ccc3cc(C(=N)N)ccc3c2)cc1 [Compound A, 6-Amidino-2-naphthyl p-guanidinobenzoate dimethanesulfonate] | ≥ 50 µg/mL | wide range of safety as compared with amantadine | stronger activities for inhibiting proliferation of human influenza virus | 0.125 µg/mL | even stronger inhibitory activities against growth of human influenza virus than amantadine | 100% | – | – | 100% | – | – | Cytotoxicity | – | 19.9% | 27.2% | 52.1% | 100%
